# In patent US11001591B2, “TRAF 6 inhibitors” (HELMHOLTZ ZENTRUM MUENCHEN—DEUTSCHES FORSCHUNGSZENTRUM FÜR …, priority 2016, dated 2021):
# Legend:
# [1] = tested on: TRAF6 auto-ubiquitination; test: TRAF6 auto-ubiquitination in Jurkat T-cells; type: cell-based, human; settings: PMA/Ionomycin
# [2] = tested on: 87 primary molecular targets; test: SafetyScreen87 (Eurofins Cerep Panlabs); type: binding; settings: 10 μM
# Procedure: The SafetyScreen87, a total of 87 assays, was carried out at Eurofins Cerep Panlabs. 87 primary molecular targets including 13 enzyme assays (kinases and non-kinase enzymes) and 74 binding assays (nuclear receptors, GPCRs, transporters and ion channels) were performed at a compound concentration of 10 μM C25-140. Each of the 87 assay reactions was performed at the optimised condition that was historically available at Eurofins Cerep Panlabs. In parallel to C25-140, a reference compound for each of the 87 reactions was concurrently tested to guarantee optimal setting of the assays. In this study the reference compounds performed in the same range as historic Ki values.
# [3] = tested on: 78 oncological cell lines and control cell lines HS-5 and MCF 10A; test: Omniscreen cancer cell line panel, CellTiter-Glo; type: cell-based; settings: nine concentrations, top 80 μM, 72 hours
# Procedure: The effect of C25-140 on cell viability of 80 cancer cell lines using the CellTiter-Glo luminescent cell viability assay was conducted at CrownBioscience Inc. at the testing facility in Beijing. Here, 80 selected cell lines were cultured in media supplemented with 10-15% FBS, in the temperature of 37° C., 5% CO2 and 95% humidity. Culture medium was purchased from GIBCO or Sigma, USA. The cells were treated with C25-140 in 9 dose levels starting at 80 μM with 3.16-fold serial dilutions. Cisplatin served as a reference control and started with a top working concentration of 100 μM. Test samples were incubated for 72 hours and cell viability was measured by the CellTiter-Glo assay.
# IKK kinase activity = test: IKK kinase assay in MEF cells; type: cell-based, mouse
# Procedure: For MEF cells, 5.5×10^5 cells were seeded, then treated with compound for 6 hours and eventually stimulated with IL-1β or TNFα for 8 minutes. 1×10^6 Jurkat T-cells were treated with compound for 6 hours and finally stimulated with PMA (400 ng/ml) and lonomycin (600 ng/ml) for 8 minutes. After cell lysis in Co-IP lysis buffer (150 mM NaCl; 25 mM Hepes (pH 7.5); 0.2% NP-40; 1 mM Glycerol; 10 mM NaF; 8 mM β-Glycerophosphat; 1 mM DTT; 300 μM Sodium-vanadate; complete protease inhibitor), input samples were taken and the supernatant was then incubated with 6 μL IKKγ antibody FL-419 (Santa Cruz Biotechnology). Upon incubation with Protein-G-Sepharose beads (GE Healthcare), beads were washed in Co-IP wash buffer (150 mM NaCl; 25 mM Hepes (pH 7.5); 0.2% NP-40; 1 mM Glycerol) and transferred into kinase reaction buffer ([…] HEPES pH7.9; 10 mM MgCl2; 20 μM ATP; 20 mM β-Glycerophosphat; 200 μM Sodium-Vanadate; 1 mM DTT) supplemented with […] GST-IκBα (1-53) and 0.5 μL ^32P-γ-ATP. After 30 minutes incubation at 37° C., reaction was stopped and analyzed by autoradiography as well as Western Blot after separation on SDS-PAGE.
# U2OS cells = test: Cell growth of osteosarcoma cell line U2OS; type: cell-based
# Procedure: For analysis of the cell growth of the osteosarcoma cell line U20S, 5×10^3 cells were seeded in 96 well plates. 18 hours later, cells were treated with C25-140 (compound 3) or DMSO for 6 hours. Using a ^137caesium source (HWM-D2000), selected samples were irradiated with a dose of either 2 Gy or 4 Gy. Cell growth was measured every 24 hours for a period of 7 days by counting Hoechst33342 positive cells in an Operetta High-Content Imaging System (PerkinElmer) and the Harmony/Columbus analysis software (PerkinElmer).
# RNF4 = biological target: T1, RNF4 (Homo sapiens, UniProt P78317); test: In vitro ubiquitination assay, RNF4; type: biochemical
# T1 construct: purchased Boston Biochem one of K-102, K-260, K-200B, K-220, K-240, K-270
# Procedure: For analysis of clAP1, MDM2, TRIM63, RNF4, ITCH and E6AP mediated poly-ubiquitination, the respective ubiquitin ligase kit from Boston Biochem (K-102, K-260, K-200B, K-220, K-240 and K-270) was used. Here, reaction buffer, E1, E2 and E3 enzyme (and p53 substrate in case of MDM2) were mixed and pre-incubated with compound or DMSO for 5 minutes at room temperature before adding Mg^2+-ATP and mono-ubiquitin for reaction start. Ubiquitination was visualized by Western Blot analyses.
# [4] = tested on: TRAF6 auto-ubiquitination; test: Immunoprecipitation of TRAF6, endogenous ubiquitination in MEF cells; type: cell-based, mouse
# Procedure: 2.5×10^6 MEF cells were seeded, treated with compound for 6 hours and stimulated with IL-1β (3.5 ng/mL) for 10 minutes. Cells were lysed in Co-IP lysis buffer containing 1% SDS to eliminate all cellular interactions. After cell lysis and removal of input samples, the samples were diluted to 0.1% SDS and incubated with 5 μL TRAF6 antibody EP591Y (Abcam) and immunoprecipitated with Protein-G-Sepharose beads. After washing of the beads in Co-IP wash buffer, TRAF6 protein was eluted and levels of TRAF6 ubiquitination were detected by Western Blot analysis.
# T1 sequence (P78317 whole entry, species assumed): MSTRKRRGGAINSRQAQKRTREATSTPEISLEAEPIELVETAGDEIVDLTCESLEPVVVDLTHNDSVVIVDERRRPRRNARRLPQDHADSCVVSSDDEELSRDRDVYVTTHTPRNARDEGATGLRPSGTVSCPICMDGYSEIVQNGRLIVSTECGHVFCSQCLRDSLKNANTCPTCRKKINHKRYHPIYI
structure (smiles),measurement,setting,value
"Cc1nn(-c2ccc3nnc(C)n3n2)c(C)c1CCC(=O)N1CCC(Cc2ccccc2)CC1 [Compound 3, 1-(4-benzylpiperidin-1-yl)-3-(3,5-dimethyl-1-(3-methyl-[1,2,4]triazolo[4,3-b]pyridazin-6-yl)-1H-pyrazol-4-yl)propan-1-one]",TRAF6 auto-ubiquitination upon TCR stimulation,[1],dose-dependently reduced
same,binding to SafetyScreen87 targets,[2],no significant binding
same,viability of cancer cell lines,[3],major effect is on cancer cells of blood origin
same,viability of control cell lines HS-5 and MCF 10A,[3],not affected at all
same,IKK kinase activity after IL-1β stimulation,IKK kinase activity,decreased
same,TNFα induced phosphorylation of IκBα,IKK kinase activity; TNFα,also affected
same,"cell proliferation, compound alone vs 2Gy irradiation",U2OS cells; 30 μM,same inhibitory impact
same,"cell proliferation, combination with 2Gy irradiation",U2OS cells; 30 μM C25-140+2Gy,boosted the effect to the region of 4Gy irradiation
same,RNF4 auto-ubiquitination,RNF4,not affected
same,IL-1β-induced TRAF6 auto-ubiquitination,[4],reduced
